Broadly, the Kd is the free concentration of one partner at which half of the binding sites on the other are occupied at equilibrium, for simple one-to-one binding.

{CholTEG} = cholesteryl-TEG lipid

One data set addresses T1, Optison (Homo sapiens, UniProt P02768).
T1 construct: purchased GE Healthcare, Chalfont St. Giles, United Kingdom
The data set is described as follows: Gel shift assay, binding of siRNA to Optison albumin solution. In general terms: In EMSA bound probe runs differently from free probe, usually more slowly.

For data set [1], the system named is U-87 human glioblastoma cells. The data set is described as follows: Delivery of siRNA to U-87 tumor cells (cell cy3-fluorescence). The format is cell-based. The note with it: U-87 cells, 40 pmoles siRNA, 24 hours after sonication, MI>1.3. Here is the method:
(§1) MATBIII rat mammary carcinoma and U-87 human glioblastoma cells were cultured in McCoy's 5A Medium (modified) (1×) (Invitrogen, Carlsbad, Calif., USA) and Eagle's Minimum Essential Medium (EMEM) (ATCC, Manassas, Va.) respectively. Both the media solutions were supplemented with 10% heat deactivated fetal bovine serum (FBS) (Fisher Scientific, Springfield, N.J.) and 1% penicillin-streptomycin (Sigma Aldrich, St Louis, Mo.). The cells were maintained at 37° C. in a humidified atmosphere with 5% CO2.
(§2) MATB-III and U-87 cells were grown in 10 mL capacity Opticell units (Nalge Nunc International, Rochester, N.Y.) to 90% confluence. The media in OptiCell was replaced with 10 mL fresh media containing 40 pmoles of either cy3-siRNA or cholesterol-siRNA. […] After incubation, the cells were imaged using a fluorescence microscope (Zeiss Axio Imager.Z1, Carl Zeiss). […] In the region of interest (ROI) in the fluorescent images, cell fluorescence was measured and the mean values of cell fluorescence were calculated. ImageJ was used to process the images and calculate fluorescence intensities.
(§3) The data are reported as mean+1.0 standard error (SE) for N=4. The statistical significance of the differences between the groups was evaluated using two-sample t-test and the statistical analyses were carried out using Minitab® 12 (Minitab Inc, State College, Pa. USA).

In another data set the target is native HSA (Homo sapiens, UniProt P02768).
Chain of native HSA (P02768 25-609): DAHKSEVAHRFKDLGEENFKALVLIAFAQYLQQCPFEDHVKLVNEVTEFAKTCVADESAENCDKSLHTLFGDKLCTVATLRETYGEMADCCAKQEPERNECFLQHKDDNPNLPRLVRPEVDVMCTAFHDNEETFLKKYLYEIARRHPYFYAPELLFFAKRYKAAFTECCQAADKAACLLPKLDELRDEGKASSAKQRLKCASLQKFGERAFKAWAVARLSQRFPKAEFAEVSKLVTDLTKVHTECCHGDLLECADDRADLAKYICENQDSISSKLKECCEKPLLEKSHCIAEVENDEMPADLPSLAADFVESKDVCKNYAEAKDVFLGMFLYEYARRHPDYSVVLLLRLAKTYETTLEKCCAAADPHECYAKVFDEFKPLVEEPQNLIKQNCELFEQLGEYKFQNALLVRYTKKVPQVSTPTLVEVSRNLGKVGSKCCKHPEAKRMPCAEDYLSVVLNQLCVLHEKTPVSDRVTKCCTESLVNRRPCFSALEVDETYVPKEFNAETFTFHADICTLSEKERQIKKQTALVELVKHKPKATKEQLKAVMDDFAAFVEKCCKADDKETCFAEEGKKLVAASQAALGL
In data set [2] the test system is MATBIII rat mammary carcinoma cells. Briefly: Delivery of siRNA to MATBIII cells, Optison/ultrasound versus RNAifect. The format is cell-based. The note with it: 24 hours. Here is the method:
as §1, §2, §3

For the next data set, the system named is denatured HSA. Briefly: Gel shift assay, binding of siRNA to denatured HSA. More on the design: species or system human. The note with it: same amount of denatured HSA, compared with native HSA and Optison. An excerpt: The reaction buffer was 1× PBS, pH 7.4.

T1 sequence (P02768 25-609): as above
Method for native HSA: Optison™ (GE Healthcare, Chalfont St. Giles, United Kingdom, 10 mg/ml albumin) was centrifuged; the top layer was discarded and the excess albumin solution in the bottom was used for the binding studies. Lyophilized human serum albumin (HSA) powder (Sigma Aldrich, St. Louis Mo.) was dissolved in 1× phosphate buffered saline (PBS) to make a stock solution of 10 mg/mL. Both Optison and native albumin solution dilutions were prepared with 1× PBS. Denatured HSA solution was prepared by heating native ESA solution to 80° C. for 20 minutes.
The stock solutions of cy3-siRNA and cy3-siRNA-cholesterol, 20 μM were prepared in RNAse free water and stored at −20° C. […]
All the reactions were loaded onto precast 6% nondenaturing polyacrylamide gels (Invitrogen, Carlsbad, Calif., USA). […] The gels containing either DNA, protein or both were imaged for cy3 fluorescence using a typhoon scanner (Typhoon™9410, GE Healthcare).
The fluorescence of Cy3 attached to siRNA can be visualized as distinct siRNA bands on the gel.
The fluorescence intensity of siRNA in each lane was estimated manually by drawing a box around the bands. […] Fluorescence intensities of bound siRNA over a wide range of albumin concentrations were calculated. Relative fluorescence, R was calculated as: R=(Fbound-Ffree)/Ffree (1) […]

“cholesterol-siRNA: siRNA for VEGF silencing, 5'-Cy3 labelled, cholesteryl TEG lipid at 3' of sense strand (SEQ ID NO: 1 and 2) (sense GCAUUUGUUUGUCCAAGAUUU; antisense AAAUCUUGGACAAACAAAUGC; sense: 3' {CholTEG}, sugars by position and backbone not given here; antisense: chemistry not given here; 5'-Cy3 label, further chemistry not fully specified)”: the “Binding to Optison solution in gel shift assay” value in the data set with Optison (0 to 50 pmoles albumin) is listed as “bound”. The Kd with Optison (binding to Optison, gel shift, non-linear fit, read-out: Dissociation constant, kd) is 7.16 µM; with native HSA, 6.4 µM. In addition, in the data set with Optison (low albumin concentration, 0 to 15 μM), the “Amount bound to Optison solution compared with native HSA” value is given as “higher”. The “Increase in average cell fluorescence, Optison/ultrasound treated versus untreated cells” value in data set [1] came to 53%. Further, the “Binding to native HSA in gel shift assay” value with native HSA (0 to 50 pmoles albumin) is “bound”. For the same substance, the “Average cell fluorescence, Optison/ultrasound delivery versus RNAifect” value in data set [2] is given as “no significant difference”. Moreover, the “Binding to denatured HSA in gel shift assay” value in the data set with denatured HSA was “significantly decreased”.

The record behind these values is US11007212B2, “Microbubble complexes and methods of use” (General Electric Company, priority 2011, dated 2021).
